Measured values from patent publication US20260265694A1, “USE OF A VITISIN COMPOUND FOR THE PRODUCTION OF HEMATOPOIETIC CELLS” (ETABLISSEMENT FRANCAIS DU SANG, priority 2022, published 2026).

system: CD34+ cells from peripheral blood; assay: AMPLIFICATION PROTOCOL: ex vivo amplification of hematopoietic progenitors; type: cell-based, human; conditions: 10 μM, FIG. 1
Description: This is a strategy for the amplification of hematopoietic progenitors. The culture is formed as follows: CD34^+ cells from peripheral blood are isolated (as indicated in section II.A.1), and cultured for 12 days in Stem Span II medium (Stem Cell Technologies) supplemented with cytokines: SCF 100 ng/mL, FLT3-L 100 ng/mL, TPO 20 ng/mL, G-CSF 10 ng/mL. The amplification product is analyzed by quantification of proliferation (count on Malassez slides) and phenotypic analysis of CD34^+ cell subpopulations by flow cytometry. […] Vitisin B is also compared with the following stilbene-type molecules at 10 μM concentration: Resveratrol, Pallidol, E-Viniferin, Ampelopsin, Oxyresveratrol, Picateatannol, Gnetol
At the end of the hematopoietic cell amplification protocol, an analysis of cell proliferation and amplification of immature and committed cell populations is performed.
Cell proliferation is evaluated by counting cells on Malassez slides with Trypan blue exclusion of dead cells.
The amplification of cell populations is based on a phenotypic analysis relating to the evolution of the expression of membrane markers CD34 and CD133 by flow cytometry. These markers make it possible to define more or less immature cell populations organized hierarchically as follows: CD34^+CD133^+->CD34^+CD133^neg->CD34^negCD133^neg. To this end, cells are incubated with anti-CD34 (1:100,000) (BD Pharmingen) and anti-CD133 (1:100,000) (BD Pharmingen) antibodies for 15 minutes. The cells are then rinsed with a PBS solution and centrifuged (430×g, 10 min, 4° C.). After resuspension of the cell pellets in PBS, the cells are analyzed by flow cytometry (FACSCantoll, Becton Dickinson, San Jose, CA).
The proportions of each phenotypic population thus observed and the total amount of cells make it possible to calculate the rate of amplification of the most immature cells (CD34^+CD133+) compared with the amplification of more committed progenitors (CD34^+CD133^neg and CD34^negCD133^neg).

Compound	amplification of the CD34+CD133neg subpopulation (erythrocyte potential)
Oc1ccc(C=Cc2cc(O)cc(O)c2)cc1 [RESVERATROL, Resveratrol]	no effect

same assay, conditions: 10 μM, FIG. 2

Compound	effect on the proportion and total amount of CD34+CD133neg cells
Oc1cc(O)cc(/C=C/c2ccc(O)cc2O)c1 [OXYRESVERATROL, Oxyresveratrol]	only vitisin B has a convincing effect
O=C1c2c(O)cc(O)cc2O[C@H](c2cc(O)c(O)c(O)c2)[C@H]1O [AMPELOPSIN, Ampelopsin]	only vitisin B has a convincing effect
Oc1cc(O)cc(/C=C/c2c(O)cccc2O)c1 [GNETOL, Gnetol]	only vitisin B has a convincing effect
Oc1ccc(C=Cc2cc(O)cc(O)c2)cc1 [RESVERATROL, Resveratrol]	only vitisin B has a convincing effect
Oc1ccc(/C=C/c2cc(O)cc3c2[C@@H](c2cc(O)cc(O)c2)[C@H](c2ccc(O)cc2)O3)cc1 [E-VINIFERIN, E-Viniferin]	only vitisin B has a convincing effect
